Experimental data reported in PubChem BioAssay (NCI).
Where “and” joins values, the source holds several entries; their conditions need not be identical. Equal entries are not always repeated.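 Step 1: Grow cells in 96-well plates. Step 2: Expose to compound for 48 hours at 5 concentrations. Step 3: Interpolate endpoints linearly; if unreached, use highest concentration. GI50: concentration for 50% inhibition of growth. TGI is the concentration that stops growth completely.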

Tests used:
Test in all cases: inhibition of tumour cell growth, NCI panel, 48 h
DU-145 prostate = test system: DU-145 prostate
EKVX NSCLC = test system: EKVX NSCLC
HCC-2998 colon = test system: HCC-2998 colon
MDA-N = test system: MDA-N
OVCAR-3 ovarian = test system: OVCAR-3 ovarian
SF-295 CNS = test system: SF-295 CNS
SK-MEL-5 melanoma = test system: SK-MEL-5 melanoma
SNB-75 CNS = test system: SNB-75 CNS
T-47D breast = test system: T-47D breast
TK-10 renal = test system: TK-10 renal

Structure (SMILES)	TGI (DU-145 prostate)	TGI (EKVX NSCLC)	TGI (HCC-2998 colon)	TGI (MDA-N)	TGI (OVCAR-3 ovarian)	TGI (SF-295 CNS)	TGI (SK-MEL-5 melanoma)	TGI (SNB-75 CNS)	TGI (T-47D breast)	TGI (TK-10 renal)	GI50 (DU-145 prostate)	GI50 (EKVX NSCLC)	GI50 (HCC-2998 colon)	GI50 (OVCAR-3 ovarian)	GI50 (SF-295 CNS)	GI50 (SK-MEL-5 melanoma)	GI50 (SNB-75 CNS)	GI50 (T-47D breast)	GI50 (TK-10 renal)
O=[N+]([O-])c1cccc2nccc(NCCCO)c12	35.3 µM	23.2 µM	26 µM	22.2 µM	35.3 µM	32 µM	14.4 µM	62.6 µM	79.7 µM	52.3 µM									
CCC(NC1=NCCO1)c1cccs1 (centres undefined)	28.5 µM	31.1 µM	28.9 µM	27.7 µM	30.6 µM	28.4 µM	30.6 µM	16.9 µM	37 µM	29.9 µM									
Cc1cn(S(=O)(=O)c2ccccc2)c2c(OCc3ccccc3)cc(NS(C)(=O)=O)cc12	> 100 µM	> 44.6 µM	> 100 µM	> 100 µM	> 75.7 µM	> 100 µM	16.6 µM	> 100 µM	39.4 µM	> 100 µM									
C=CCn1c(-c2ccc([N+](=O)[O-])cc2)csc1=N	> 100 µM	> 100 µM	> 100 µM	> 100 µM	> 100 µM	> 100 µM	> 100 µM	95.6 µM	> 100 µM	> 100 µM									
CC(=O)OC1COC(Nc2nc(N)n(C)c(=O)c2N=O)C(OC(C)=O)C1OC(C)=O (centres undefined)	> 10 µM	> 10 µM	> 10 µM	> 10 µM	> 10 µM	> 10 µM	> 10 µM	> 10 µM	> 10 µM	> 10 µM									
CN(C)/N=N/c1nc[nH]c1C(N)=O	> 1000 µM	> 169 µM	99.5 µM and > 654 µM	> 1000 µM	> 1000 µM	> 1000 µM	96.2 µM and > 429 µM	82.2 µM and > 763 µM	> 464 µM	828 µM	51.2 µM	94.1 µM and > 134 µM	58.4 µM	101 µM	44 µM	120 µM	126 µM	77.3 µM	46.8 µM
[N-]=[N+]=Nc1c([N+](=O)[O-])c(=O)n2c3c(cccc13)CCC2	38.7 µM	41.8 µM	34.4 µM	27.9 µM	32.5 µM	> 100 µM	30.3 µM	38.1 µM	26.3 µM	34.3 µM									
CCOC(=O)/C=C(\C(=O)OCC)n1ccc(=O)[nH]c1=O	> 76.9 µM	34.9 µM	38.4 µM	51.3 µM	26.1 µM	> 100 µM	> 56.7 µM	35.3 µM	33.1 µM	26.2 µM									
Cc1ccc(N=C2C(=Nc3ccc(C)cc3)N(c3ccc(C)cc3)C(=S)N2C(=O)c2ccccc2)cc1	> 100 µM	> 100 µM	> 100 µM	> 100 µM	> 100 µM	32.3 µM	> 100 µM	81.2 µM	> 100 µM	> 100 µM									
Oc1cc(Br)cc2cc(Cl)cnc12	> 55.5 µM	45.2 µM	46.3 µM	> 100 µM	11.2 µM	> 48 µM	15.4 µM	> 90.3 µM	16.7 µM	> 94.3 µM									
C=C(C)CNC(=S)N(N)c1ccc2ccccc2c1	> 100 µM	88.9 µM	> 100 µM	> 100 µM	> 100 µM	> 100 µM	> 100 µM	> 100 µM	> 100 µM	71.4 µM									
CC(C)(C)CC(C)(C)c1ccc(O)c(C[N+](C)(C)[O-])c1	> 100 µM	> 100 µM	> 100 µM	> 100 µM	> 100 µM	> 100 µM	> 100 µM	> 100 µM	> 100 µM	> 100 µM									
C=C1C(=O)OC2CC3(C)OC3CC/C(C)=C/C(OC(C)=O)C12 (centres undefined)	28.4 µM	32.7 µM	31.6 µM	18.7 µM	34.7 µM	27.4 µM	20.4 µM	22 µM	15.9 µM	12.8 µM									
O=C1CC2CCC(C1)S2=O (centres undefined)	> 100 µM	> 100 µM	> 100 µM	> 100 µM	> 100 µM	> 100 µM	> 100 µM	> 100 µM	> 100 µM	> 100 µM									
CC(C)(C)[Si](C)(C)OCC1OC(n2cnc3c(=O)[nH]c(N)nc32)C(O[Si](C)(C)C(C)(C)C)C1O[Si](C)(C)C(C)(C)C (centres undefined)	12.2 µM	> 46.6 µM	4.02 µM	3.3 µM	3.56 µM	12 µM	1.77 µM	9.57 µM	5.14 µM	5.97 µM									
O=C(O)CCC(NC(=O)c1ccc(Nc2nc3cc(C(F)(F)F)ccc3nc2C(=O)O)cc1)C(=O)O (centres undefined)	> 100 µM	> 100 µM	> 100 µM	> 100 µM	> 100 µM	> 100 µM	> 100 µM	> 100 µM	> 100 µM	> 100 µM									
